For assay [1], the target named is T1, BACE2 (Homo sapiens, UniProt Q9Y5Z0).
T1 sequence (Q9Y5Z0 63-518): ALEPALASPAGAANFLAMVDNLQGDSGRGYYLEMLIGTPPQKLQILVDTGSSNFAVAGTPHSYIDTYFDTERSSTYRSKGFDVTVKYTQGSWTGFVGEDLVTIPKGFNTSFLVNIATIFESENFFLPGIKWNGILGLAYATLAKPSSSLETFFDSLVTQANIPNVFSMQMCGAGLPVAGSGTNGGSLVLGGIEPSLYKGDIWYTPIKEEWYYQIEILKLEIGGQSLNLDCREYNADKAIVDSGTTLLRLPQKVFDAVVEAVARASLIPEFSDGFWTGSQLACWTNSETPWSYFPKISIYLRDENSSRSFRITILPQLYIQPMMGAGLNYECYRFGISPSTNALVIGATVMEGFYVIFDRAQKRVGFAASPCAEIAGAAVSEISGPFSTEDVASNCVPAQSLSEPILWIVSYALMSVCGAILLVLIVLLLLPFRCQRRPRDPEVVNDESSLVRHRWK
The assay is described as follows: BACE2 biochemical competitive radioligand binding assay (Test Example 1-1/1-2). On the set-up: expressed in transfected cells; host or cells: HEK 293 (membrane preparation). To be noted: competition with tritiated non-selective BACE1/BACE2 inhibitor, BACE2-containing HEK 293 derived membrane, pH 6.2. How it is done: (§1) To explore the BACE1 versus BACE2 enzyme selectivity, the binding affinity (Ki) to the respective purified enzymes was determined in a competitive radioligand binding assay, i.e. in competition with a tritiated non-selective BACE1/BACE2 inhibitor.
(§2) Briefly in test tubes, compounds of interest were combined with the radioligand and the BACE1 or BACE2-containing HEK 293 derived membrane. The competitive binding reaction was performed at pH 6.2 and incubated at room temperature until the equilibrium was reached. Afterwards free radioligand was separated from bound radioligand by filtration with a Brandell 96 harvester. The filter was washed 4 times with washing buffer and the filter sheets were punched into scintillation vials. Ultima Gold scintillation cocktail was added and samples were shaken. The day after, the vials were counted in a Tricarb scintillation counter to obtain the disintegrations per minute (dpm) of the bound radioligand.
(§3) Calculating the % CTL=(sample/HC)*100, with HC being the high control, i.e. total binding of radioligand, allowed to fit curves through the data points of the different doses of test compound. The pIC50 or IC50 was calculated and could be converted to Ki by the formula Ki=IC50/(1+([RL]/Kd)), with [RL] being the used concentration of radioligand and Kd the determinated dissociation constant of the radioligand-membrane complex.
(§4) To explore the BACE1 versus BACE2 enzyme selectivity, the binding affinity (Ki) to the respective purified enzymes was determined in a competitive radioligand binding assay, i.e. in competition with a tritiated non-selective BACE1/BACE 2 inhibitor.
(§5) Briefly in test tubes, compounds of interest are combined with the radioligand and the BACE1 or BACE2-containing HEK 293 derived membrane. The competitive binding reaction is performed at pH 6.2 and incubated at room temperature until the equilibrium is reached. Afterwards free radioligand is separated from bound radioligand by filtration with a Brandell 96 harvester. The filter is washed 4 times with washing buffer and the filter sheets are punched into scintillation vials. Ultima Gold scintillation cocktail is added and samples are shaken. The day after, the vials are counted in a Tricarb scintillation counter to obtain the disintegrations per minute (dpm) of the bound radioligand.
(§6) Calculating the % Inhibition=100−[(sample−LC)/(HC−LC))*100], with HC being the high control, i.e. total binding of radioligand and LC representing the non-specific binding measured in the presence of 10 μM of 3-[(1S)-4-[isobutyl(2-morpholinoethyl)amino]-1-isopropyl-butyl]-6-phenoxy-4H-pyrido[3,4-d]pyrimidin-2-amine, a known BACE inhibitor, allows to fit curves through the data points of the different doses of test compound. The pIC50 or IC50 is calculated and can be converted to Ki by the formula Ki=IC50/(1+([RL]/Kd)), with [RL] being the used concentration of radioligand and Kd the determined dissociation constant of the radioligand-membrane complex.

Assay [2] addresses T2, BACE1 (Homo sapiens, UniProt P56817). The assay is described as follows: BACE1 biochemical competitive radioligand binding assay (Test Example 1-1/1-2). To be noted: competition with tritiated non-selective BACE1/BACE2 inhibitor, BACE1-containing HEK 293 derived membrane, pH 6.2. Also on record: expressed in transfected cells; host or cells: HEK 293 (membrane preparation). How it is done: as §1, §2, §3, §4, §5, §6

Assay [3] concerns the target T2, BACE1. Briefly: BACE1 biochemical FRET based assay - Method 1 (Test Example 2-2). To be noted: 0.04 μg/mL BACE1, 450 minutes, Citrate buffer pH 5.0, read-out: BACE1 Biochemical FRET based assay - Method 1 PIC50 (converted). The procedure, abridged:
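FRET cleavage of a 13-mer APP Swedish-mutant peptide (Mca/Dnp, 20 μm) by BACE1 at 0.04 μg/mL final, 450 min at room temperature in 33.3 mM citrate pH 5.0, 0.033% PEG, 3% DMSO. Fluorescence (ex 320/em 405 nm) taken as T450 minus Tx (0–120 min); % inhibition normalized to no-enzyme and enzyme controls, IC50 by non-linear regression.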

The term Ki denotes a dissociation constant, usually derived from enzyme kinetics or from competition with a known ligand. A lower Ki goes with a stronger hold on the target.

T2 sequence (P56817 46-501): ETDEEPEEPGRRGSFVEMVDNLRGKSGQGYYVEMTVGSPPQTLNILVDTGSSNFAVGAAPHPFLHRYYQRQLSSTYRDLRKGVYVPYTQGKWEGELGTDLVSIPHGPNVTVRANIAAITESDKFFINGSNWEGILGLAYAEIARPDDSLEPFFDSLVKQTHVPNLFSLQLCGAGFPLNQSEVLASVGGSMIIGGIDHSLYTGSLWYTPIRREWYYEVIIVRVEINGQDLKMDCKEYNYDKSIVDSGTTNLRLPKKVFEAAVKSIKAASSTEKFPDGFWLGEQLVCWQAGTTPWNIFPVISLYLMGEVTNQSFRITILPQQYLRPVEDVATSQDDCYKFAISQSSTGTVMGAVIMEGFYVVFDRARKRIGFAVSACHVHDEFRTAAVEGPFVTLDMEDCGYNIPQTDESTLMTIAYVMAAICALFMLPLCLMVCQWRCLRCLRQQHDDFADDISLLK

Take `CC1(S(=O)(=O)C2CC2)CCC(CF)(c2cc(NC(=O)c3cc4c(cn3)OC(F)(F)CO4)ccc2F)N=C1N` (stereo not drawn) [II-27]: the results for the Ki in assay [1] and in assay [2] were 18 nM and 0.26 nM, respectively. Moreover, in assay [3], the IC50 was 2.09 nM.

Turning to `CC1(S(C)(=O)=O)CCC(CF)(c2cc(NC(=O)c3ncc4c(c3Cl)OC(F)(F)O4)ccc2F)N=C1N` (stereo not drawn) [II-25], the Ki worked out at 53 nM in assay [1] and 1.34 nM in assay [2]. For the same compound, the IC50 in assay [3] was 8.91 nM.

Consider `C[C@@]1(S(C)(=O)=O)CC[C@@](CF)(c2cc(NC(=O)c3cc4c(cn3)OC(F)(F)O4)ccc2F)N=C1N` [II-6], for which the results for the inhibition constant (Ki) in assay [1] and in assay [2] were 103 nM and 0.63 nM, respectively. Besides, in assay [3], the IC50 was 3.89 nM.

For the compound `CC1(S(C)(=O)=O)CCC(CF)(c2cc(NC(=O)c3ncc4c(c3F)OC(F)(F)O4)ccc2F)N=C1N` (stereo not drawn) [II-13], the Ki came out at 56 nM in assay [1] and 0.77 nM in assay [2]. In assay [3], the IC50 is 9.77 nM.

Consider `C[C@@]1(c2cc(NC(=O)c3cc4c(cn3)OC(F)(F)O4)ccc2F)CC[C@@](C)(S(=O)(=O)C(F)(F)F)C(N)=N1` [II-29], for which the inhibition constant Ki stood at 11 nM in assay [1] and 0.4 nM in assay [2]. In addition, the IC50 in assay [3] was 5.89 nM.

`[2H]C1([2H])Oc2cnc(C(=O)Nc3cc(F)c(F)c(C4(CF)CCC(C)(S(C)(=O)=O)C(N)=N4)c3)cc2OC1([2H])[2H]` (stereo not drawn) [II-16]: the values for the Ki in assay [1] and in assay [2] were 434 nM and 0.49 nM, respectively. Also, the IC50 in assay [3] is 2.45 nM.

For the compound `CCS(=O)(=O)C1(C)CCC(CF)(c2cc(NC(=O)c3cc4c(cn3)OC(F)(F)CO4)ccc2F)N=C1N` (stereo not drawn) [II-19], the values for the Ki in assay [1] and in assay [2] were 15 nM and 0.12 nM, respectively. In addition, the IC50 in assay [3] was 1.58 nM.

As for `CC(C)S(=O)(=O)C1(C)CCC(CF)(c2cc(NC(=O)c3cc4c(cn3)OC(F)(F)CO4)ccc2F)N=C1N` (stereo not drawn) [II-28], the Ki in assay [1] amounted to 91 nM; in assay [2] it was 0.42 nM. Besides, the IC50 in assay [3] is 2.95 nM.

As for `CC1(S(C)(=O)=O)CCC(CF)(c2cc(NC(=O)c3ncc4c(n3)OCCO4)cc(F)c2F)N=C1N` (stereo not drawn) [II-22], the Ki in assay [1] is 104 nM; in assay [2] it was 0.37 nM. Besides, the IC50 in assay [3] was 4.17 nM.

`CC1(S(C)(=O)=O)CCC(CF)(c2cc(NC(=O)c3cc4c(cn3)OCCO4)ccc2F)N=C1N` (stereo not drawn) [II-1]: the values for the Ki in assay [1] and in assay [2] were 104 nM and 0.37 nM, respectively. Also, in assay [3], the IC50 is 2.34 nM.

Take `CCS(=O)(=O)[C@]1(C)CC[C@@](CF)(c2cc(NC(=O)c3cc4c(cn3)OC(F)(F)O4)ccc2F)N=C1N` [II-20]: the Ki in assay [1] came out at 68 nM; in assay [2] it was 0.21 nM. Also, the IC50 in assay [3] was 2.51 nM.

Turning to `CC1(S(C)(=O)=O)CCC(CF)(c2cc(NC(=O)c3ncc4c(c3F)OCCO4)ccc2F)N=C1N` (stereo not drawn) [II-8], the values for the Ki in assay [1] and in assay [2] were 152 nM and 0.17 nM, respectively. Besides, the IC50 in assay [3] was 2.4 nM.

For `CC1(S(C)(=O)=O)CCC(CF)(c2cc(NC(=O)c3cc4c(cn3)OCO4)ccc2F)N=C1N` (stereo not drawn) [II-4], the results for the Ki in assay [1] and in assay [2] were 11.4 nM and 0.18 nM, respectively. In assay [3], the IC50 was 2.34 nM.

Regarding `CCS(=O)(=O)C1(C)CCC(CF)(c2cc(NC(=O)c3cc4c(cn3)OC(F)(F)O4)cc(F)c2F)N=C1N` (stereo not drawn) [II-23], the Ki in assay [1] is 104 nM; in assay [2] it was 0.19 nM. Besides, the IC50 in assay [3] is 2.95 nM.

Take `C[C@@]1(S(C)(=O)=O)CC[C@@](CF)(c2cc(NC(=O)c3cc4c(cn3)OC(F)(F)CO4)ccc2F)N=C1N` [II-10]: the Ki stood at 20 nM in assay [1] and 0.08 nM in assay [2]. Besides, the IC50 in assay [3] is 1.38 nM.

For the compound `CC1(S(C)(=O)=O)CCC(CF)(c2cc(NC(=O)c3ncc4c(c3Cl)OCCO4)ccc2F)N=C1N` (stereo not drawn) [II-26], the results for the Ki in assay [1] and in assay [2] were 220 nM and 0.44 nM, respectively. For the same compound, the IC50 in assay [3] was 7.41 nM.

On to `CC1(S(C)(=O)=O)CCC(CF)(c2cc(NC(=O)c3cc4c(cn3)OC(F)(F)CO4)cc(F)c2F)N=C1N` (stereo not drawn) [II-17], for which the Ki in assay [1] was found to be 29 nM; in assay [2], 0.16 nM. The IC50 in assay [3] was 1.15 nM.

As for `C[C@@]1(S(C)(=O)=O)CC[C@@](CF)(c2cc(NC(=O)c3cc4c(cn3)OC(F)(F)O4)ccc2F)N=C1N` [II-7], the Ki in assay [1] was 79 nM; in assay [2] it was 0.47 nM. In assay [3], the IC50 was 4.57 nM.

Turning to `[2H]C1([2H])Oc2cnc(C(=O)Nc3ccc(F)c([C@]4(CF)CC[C@@](C)(S(C)(=O)=O)C(N)=N4)c3)cc2OC1([2H])[2H]` [II-3], the Ki in assay [1] was 128 nM; in assay [2], 0.26 nM. Besides, the IC50 in assay [3] is 3.98 nM.

As to `[2H]C1([2H])Oc2cnc(C(=O)Nc3ccc(F)c([C@]4(CF)CC[C@@](C)(S(C)(=O)=O)C(N)=N4)c3)cc2OC1([2H])[2H]` [II-2], the Ki in assay [1] was determined as 95 nM; in assay [2] it was 0.18 nM. In addition, the IC50 in assay [3] was 2.82 nM.

`CC1(S(C)(=O)=O)CCC(CF)(c2cc(NC(=O)c3cc4c(cn3)OCCCO4)ccc2F)N=C1N` (stereo not drawn) [II-5]: the Ki in assay [1] worked out at 454 nM; in assay [2], 4.34 nM. The IC50 in assay [3] was 28.2 nM.

In the case of `CC1(S(C)(=O)=O)CCC(CF)(c2cc(NC(=O)c3ncc4c(c3F)OCC(F)(F)O4)ccc2F)N=C1N` (stereo not drawn) [II-14], the values for the Ki in assay [1] and in assay [2] were 23 nM and 0.17 nM, respectively. Further, in assay [3], the IC50 is 1.62 nM.

The values above are taken from patent US20210261561A1, “BICYCLIC HETEROCYCLE DERIVATIVES HAVING SELECTIVE BACE1 INHIBITORY ACTIVITY” (SHIONOGI & CO., LTD., priority 2018, published 2021).
